Drawing on ChEMBL document CHEMBL1139863, “Synthesis and in vitro antiprotozoal activities of dicationic 3,5-diphenylisoxazoles” (J Med Chem, 2007), this text covers IC50 for 30 compounds.

pIC50: −log10 of the molar value. Where only a bound is given, the exact number is not on record here.

For test [1], the system named is Trypanosoma brucei rhodesiense. The test can be described thus: Antitrypanosomal activity against Trypanosoma brucei rhodesiense. Format: functional, organism-based.
Test [2] has as its system Plasmodium falciparum. Briefly: Antiplasmodial activity against chloroquine-resistant Plasmodium falciparum K1. Format: functional, organism-based.
For test [3], the system named is L6. Briefly: Cytotoxicity against rat L6 cells. It is filed as cell-based.

With `Nc1nc(N)nc(Nc2ccc([As]3SCC(CO)S3)cc2)n1` (centres undefined) [MELARSOPROL], the pIC50 – broadly, the IC50 on a negative log10 scale, so that one unit is a factor of ten – in test [1] is 8.19.

Take `N=C(N)c1ccc(-c2cc(-c3ccccc3)no2)cc1`: the pIC50 in test [1] is 5.76; in test [2], less than 5.48; in test [3] it was 4.72.

On to `N=C(N)c1ccc(-c2cc(-c3ccccc3)on2)cc1`, for which the pIC50 in test [1] was 5.95; in test [2] it was less than 5.48; in test [3], 4.73.

In the case of `CC(C)NC(=N)c1ccc(-c2cc(-c3ccc(C(=N)NC(C)C)cc3)on2)cc1`, the negative-log IC50 (pIC50) in test [1] is 6.71; in test [2], 8.18; in test [3], less than 3.75.

On to `N=C(N)c1cccc(-c2cc(-c3ccc(C(=N)N)cc3Cl)no2)c1`, for which the negative-log IC50 (pIC50) in test [1] is 7.94; in test [2], 7.85; in test [3], 4.06.

Regarding `c1cc(C2=NCCN2)cc(-c2cc(-c3ccc(C4=NCCN4)cc3)no2)c1`, the pIC50 was 6.01 in test [1], 7.11 in test [2] and 4.52 in test [3].

For `N=C(N)c1cccc(-c2cc(-c3cccc(C(=N)N)c3)on2)c1`, the values for the negative-log IC50 (pIC50) in test [1], in test [2] and in test [3] were 7.54, 8.04 and 3.82, respectively.

Consider `COc1cc(C(=N)N)ccc1-c1cc(-c2ccc(C(=N)N)cc2OC)on1`, for which the pIC50 was 7.89 in test [1], 8.21 in test [2] and 4.07 in test [3].

`c1cc(-c2cc(-c3ccc(C4=NCCN4)cc3)on2)ccc1C1=NCCN1`: the figures for the negative-log IC50 (pIC50) in test [1], in test [2] and in test [3] were 7.06, 8.39 and 5.74, respectively.

For `N=C(N)c1ccc(-c2cc(-c3ccc(C(=N)N)cc3Cl)on2)cc1`, the pIC50 in test [1] was 7.81; in test [2], 8.10; in test [3], 4.39.

`C[C@@H]1CC[C@H]2[C@@H](C)C(=O)O[C@@H]3O[C@@]4(C)CC[C@@H]1[C@]32OO4` [ARTEMISININ]: the pIC50 in test [2] is 8.17.

Regarding `N=C(N)c1ccc(-c2cc(-c3ccc(C(=N)N)cc3[N+](=O)[O-])on2)cc1`, the negative-log IC50 (pIC50) in test [1] is 7.86; in test [2] it was 7.83; in test [3], 4.80.

For the compound `N=C(N)c1cccc(-c2cc(-c3ccc(C(=N)N)cc3[N+](=O)[O-])no2)c1`, the pIC50 in test [1] is 7.71; in test [2], 7.52; in test [3] it was less than 3.69.

Regarding `c1cc(C2=NCCN2)cc(-c2cc(-c3ccc(C4=NCCN4)cc3)on2)c1`, the negative logarithm of the IC50 (pIC50) in test [1] was 5.81; in test [2], 7.29; in test [3], 4.19.

As to `COc1cc(C(=N)N)ccc1-c1cc(-c2cccc(C(=N)N)c2)no1`, the negative logarithm of the IC50 (pIC50) was 8.19 in test [1], 8.46 in test [2] and 3.75 in test [3].

Consider `N=C(N)c1cccc(-c2cc(-c3ccc(C(=N)N)cc3[N+](=O)[O-])on2)c1`, for which the negative logarithm of the IC50 (pIC50) in test [1] was 8.05; in test [2], 7.59; in test [3], 4.32.

Take `COc1cc(C(=N)N)ccc1-c1cc(-c2ccc(C(=N)N)cc2)on1`: the negative logarithm of the IC50 (pIC50) in test [1] was 7.79; in test [2] it was 7.18; in test [3], 4.03.

For `CC(C)NC(=N)c1ccc(-c2cc(-c3cccc(C(=N)NC(C)C)c3)on2)cc1`, the values for the pIC50 in test [1], in test [2] and in test [3] were 6.50, 7.46 and less than 3.73, respectively.

Take `CC(C)NC(=N)c1ccc(-c2cc(-c3cccc(C(=N)NC(C)C)c3)no2)cc1`: the negative-log IC50 (pIC50) in test [1] was 6.31; in test [2] it was 7.97; in test [3], less than 3.73.

Turning to `N=C(N)c1ccc(-c2cc(-c3ccc(C(=N)N)cc3)on2)cc1`, the negative logarithm of the IC50 (pIC50) in test [1] is 8.29; in test [2], 7.65; in test [3], 5.68.

`N=C(N)c1ccc(-c2cc(-c3cccc(C(=N)N)c3)on2)cc1`: the results for the pIC50 in test [1], in test [2] and in test [3] were 8.46, 8.60 and 4.51, respectively.

As for `COc1cc(C(=N)N)ccc1-c1cc(-c2cccc(C(=N)N)c2)on1`, the pIC50 in test [1] was 8.23; in test [2], 8.05; in test [3] it was 3.87.

As for `COc1cc(C(=N)N)ccc1-c1cc(-c2ccc(C(=N)N)cc2)no1`, the figures for the pIC50 in test [1], in test [2] and in test [3] were 7.97, 8.22 and 3.91, respectively.

With `c1cc(C2=NCCN2)cc(-c2cc(-c3cccc(C4=NCCN4)c3)on2)c1`, the negative-log IC50 (pIC50) in test [1] is 4.73; in test [2], 6.64; in test [3], 4.58.

Regarding `CC(C)NC(=N)c1cccc(-c2cc(-c3cccc(C(=N)NC(C)C)c3)on2)c1`, the values for the negative-log IC50 (pIC50) in test [1], in test [2] and in test [3] were 5.30, 7.37 and less than 3.74, respectively.

In the case of `N=C(N)c1ccc(-c2cc(-c3ccc(C(=N)N)cc3Cl)no2)cc1`, the figures for the negative-log IC50 (pIC50) in test [1], in test [2] and in test [3] were 7.63, 7.26 and 5.24, respectively.

`N=C(N)c1cccc(-c2cc(-c3ccc(C(=N)N)cc3Cl)on2)c1`: the pIC50 in test [1] was 8.20; in test [2], 7.73; in test [3] it was 4.08.

`N=C(N)c1ccc(-c2ccc(-c3ccc(C(=N)N)cc3)o2)cc1` [FURAMIDINE] had a pIC50 in test [3] of 4.79.

As to `N=C(N)c1ccc(-c2cc(-c3ccc(C(=N)N)cc3[N+](=O)[O-])no2)cc1`, the pIC50 is 7.49 in test [1], 7.83 in test [2] and 4.65 in test [3].

Consider `N=C(N)c1ccc(-c2cc(-c3cccc(C(=N)N)c3)no2)cc1`, for which the pIC50 in test [1] was 8.20; in test [2], 7.24; in test [3], 4.62.
